Assay results: patent publication US6291461A, “Stephacidin antitumor antibiotics” (Bristol-Myers Squibb Company, priority 1999, dated 2001)

Assays:
LX-1 lung, sensitive = experiment: In vitro cytotoxicity (MTS assay), LX-1; format: cell-based; conditions: Homo sapiens; LX-1, 72 h
Procedure: (§1) In vitro cytotoxicity was assessed in human carcinoma cells by the MTS (3-(4,5-dimethylthiazol-2-yl)-5-(3-carboxymethoxyphenyl)-2-(4-sulphenyl)-2H-tetrazolium, inner salt) assay (5). Cells were plated at 4,000 cell/well in 96 well microtiter plates and 24 hours later drugs were added and serial diluted. The cells were incubated at 37° form 72 hours at which time the tetrazolium dye, MTS at 333 μg/ml (final concentration),in combination with the electron coupling agent phenazine methosulfate at 25 μM (final concentration) was added. A dehydrogenase enzyme in live cells reduces the MTS to a form that absorbs light at 492 nm which can be quantitated spectrophotometrically. The greater the absorbance the greater the number of live cells. The results are expressed as an IC50, which is the drug concentration required to inhibit cell proliferation (i.e. absorbance at 492 nm) to 50% of that of untreated control cells.

[1] = tested on: LNCaP prostate, testosterone sensitive; experiment: In vitro cytotoxicity (MTS assay), LNCaP; format: cell-based, human; conditions: for IC50: Homo sapiens, LNCaP, 72 h
Procedure: as §1

[2] = tested on: MCF-7 breast, estradiol sensitive; experiment: In vitro cytotoxicity (MTS assay), MCF-7; format: cell-based; conditions: Homo sapiens, MCF7; MCF-7, 72 h
Procedure: as §1

[3] = tested on: SKBR3 breast, estradiol-independent; experiment: In vitro cytotoxicity (MTS assay), SKBR3; format: cell-based; conditions: Homo sapiens, SK-BR-3; SKBR3, 72 h
Procedure: as §1

A2780 ovarian, parental = experiment: In vitro cytotoxicity (MTS assay), A2780; format: cell-based; conditions: Homo sapiens, A2780, 72 h
Procedure: as §1

[4] = tested on: PC3 prostate, testosterone independent; experiment: In vitro cytotoxicity (MTS assay), PC3; format: cell-based; conditions: Homo sapiens; PC3, 72 h
Procedure: as §1

[5] = tested on: A2780/Tax ovarian, Taxol resistant; experiment: In vitro cytotoxicity (MTS assay), A2780/Tax; format: cell-based; conditions: Homo sapiens, 72 h
Procedure: as §1

[6] = tested on: HCT116/Topo colon, resistant to etoposide; experiment: In vitro cytotoxicity (MTS assay), HCT116/Topo; format: cell-based; conditions: Homo sapiens, HCT-116, 72 h
Procedure: as §1

HCT116 colon, parental = experiment: In vitro cytotoxicity (MTS assay), HCT116; format: cell-based; conditions: Homo sapiens, HCT-116; HCT116, 72 h
Procedure: as §1

human tumor cell lines = experiment: In vitro cytotoxicity against several human tumor cell lines; format: cell-based
Procedure: as §1

[7] = tested on: HCT116/mdr+ colon, overexpresses Mdr+; experiment: In vitro cytotoxicity (MTS assay), HCT116/mdr+; format: cell-based; conditions: Homo sapiens, HCT-116, 72 h
Procedure: as §1

[8] = tested on: A2780/DDP ovarian, mutp53/bcl2+; experiment: In vitro cytotoxicity (MTS assay), A2780/DDP; format: cell-based; conditions: Homo sapiens, 72 h
Procedure: as §1

A2780 cells = experiment: Apoptosis determination (TUNEL assay), A2780; format: cell-based, human; conditions: for % of A2780 Cells in Apoptosis: 24 h treatment; for induction of apoptosis: (A2780)
Procedure: (§2) Cells were plated, incubated overnight, treated with compound for 24 hours then harvested by trypsinization. For cell cycle analysis cells were trypsinized, permeated, stained with 50 ug/ml propidium iodide and analyzed by FACS. For apoptosis evaluation (TUNEL assay) cells were permeated and reacted with TdT and fluoresceinated dUTP for 3 hours following the procedure recommended by the APO-Direct kit (Pharmingen).

LNCaP cells = experiment: Apoptosis determination (TUNEL assay), LNCaP; format: cell-based, human; conditions: for % of LNCaP Cells in Apoptosis: 24 h treatment; for induction of apoptosis: testosterone sensitive (LNCaP) cells
Procedure: as §2

p53, mdr or bcl2 = experiment: Mechanism of action: mediation by p53, mdr or bcl2; format: cell-based
[9] = tested on: tubulin or topoisomerase II; experiment: Mechanism of action: tubulin or topoisomerase II
Solubility = format: physicochemical

| Structure (SMILES) | IC50 (LX-1 lung, sensitive) | IC50 [1] | IC50 [2] | IC50 [3] | IC50 (A2780 ovarian, parental) | IC50 [4] | IC50 [5] | IC50 [6] | IC50 (HCT116 colon, parental) | IC50 [7] | IC50 [8] | % of A2780 Cells in Apoptosis (A2780 cells; 0.1 x 72 hour cytotoxic IC50) | % of A2780 Cells in Apoptosis (A2780 cells; 1 x 72 hour cytotoxic IC50) | % of A2780 Cells in Apoptosis (A2780 cells; 5 x 72 hour cytotoxic IC50) | % of A2780 Cells in Apoptosis (A2780 cells; 10 x 72 hour cytotoxic IC50) | % of A2780 Cells in Apoptosis (A2780 cells; 20 x 72 hour cytotoxic IC50) | induction of apoptosis (A2780 cells) | % of LNCaP Cells in Apoptosis (LNCaP cells; 0.1 x 72 hour cytotoxic IC50) | % of LNCaP Cells in Apoptosis (LNCaP cells; 1 x 72 hour cytotoxic IC50) | % of LNCaP Cells in Apoptosis (LNCaP cells; 5 x 72 hour cytotoxic IC50) | other results |
| --- | --- | --- | --- | --- | --- | --- | --- | --- | --- | --- | --- | --- | --- | --- | --- | --- | --- | --- | --- | --- | --- |
| CC1(C)C=Cc2c(ccc3c4c([nH]c23)C(C)(C)C2CC35CCCN3C(=O)C2(C4)NC5=O)O1 (stereo not shown) [Stephacidin A] | 4220 nM | 1000 nM | 4200 nM | 2150 nM | 4000 nM | 2100 nM | 3600 nM | 13100 nM | 2100 nM | 6700 nM | 6800 nM | 1% | .8% | 21% | 14% | 15% | potent inducers of apoptosis | 0.02% | 0.00% | 0.15% | in vivo criteria for acceptable activity (human tumor cell lines; potency judged against applicant's criteria): within our in vivo criteria for acceptable activity; fold less potent (human tumor cell lines; relative potency in vitro, versus the other stephacidin): 10 fold; in vitro cytotoxicity (human tumor cell lines; several human tumor cell lines (Table 3)): potent in vitro cytotoxicity; % of LNCaP Cells in Apoptosis (LNCaP cells; 10 x 72 hour cytotoxic IC50): 5.75%; % of LNCaP Cells in Apoptosis (LNCaP cells; 20 x 72 hour cytotoxic IC50): 11.81%; induction of apoptosis (LNCaP cells): potent inducers of apoptosis |
| CC1(C)C=Cc2c(ccc3c2[N+]([O-])=C2C(C)(C)C4CC56CCCN5C(=O)C4(NC6=O)C4N5C(=O)C67CCCN6C(=O)C56C(C7)C(C)(C)c5c(c7ccc8c(c7n5O)C=CC(C)(C)O8)C6C234)O1 (stereo not shown) [Stephacidin B] | 380 nM | 60 nM | 270 nM | 320 nM | 330 nM | 370 nM | 260 nM | 420 nM | 460 nM | 460 nM | 430 nM | .5% | .2% | 1.0% | 33% | 5% | potent inducers of apoptosis | 0.02% | 0.00% | 0.05% | selectivity in testosterone dependent LNCaP cells ([1]; LNCaP versus other cell lines): Good selectivity; effects mediated by p53, mdr or bcl2 (p53, mdr or bcl2): not mediated by p53, mdr or bcl2; tubulin or topoisomerase II mediated [9]: not tubulin or topoisomerase II mediated; Solubility (Solubility; hexane): insoluble; Solubility (Solubility; methanol, chloroform, acetone, acetonitrile, dimethyl sulfoxide, acetonitrile/methanol (1:1)): Soluble; Solubility (Solubility; water): insoluble; % of LNCaP Cells in Apoptosis (LNCaP cells; 10 x 72 hour cytotoxic IC50): 4.52%; % of LNCaP Cells in Apoptosis (LNCaP cells; 20 x 72 hour cytotoxic IC50): 11.13%; induction of apoptosis (LNCaP cells): potent inducers of apoptosis |
